{"source": "patent US20110158924A1", "about": "“PHOTO-PROTECTIVE DERMATOLOGICAL FORMULATIONS” (DermaPlus, Inc., priority 2007, published 2011)", "molecules": {"B1": {"name": "PRODH (Homo sapiens) (protein)", "chain": "MALRRALPALRPCIPRFVPLSTAPASREQPAAGPAAVPGGGSATAVRPPVPAVDFGNAQEAYRSRRTWELARSLLVLRLCAWPALLARHEQLLYVSRKLLGQRLFNKLMKMTFYGHFVAGEDQESIQPLLRHYRAFGVSAILDYGVEEDLSPEEAEHKEMESCTSAAERDGSGTNKRDKQYQAHWAFGDRRNGVISARTYFYANEAKCDSHMETFLRCIEASGRVSDDGFIAIKLTALGRPQFLLQFSEVLAKWRCFFHQMAVEQGQAGLAAMDTKLEVAVLQESVAKLGIASRAEIEDWFTAETLGVSGTMDLLDWSSLIDSRTKLSKHLVVPNAQTGQLEPLLSRFTEEEELQMTRMLQRMDVLAKKATEMGVRLMVDAEQTYFQPAISRLTLEMQRKFNVEKPLIFNTYQCYLKDAYDNVTLDVELARREGWCFGAKLVRGAYLAQERARAAEIGYEDPINPTYEATNAMYHRCLDYVLEELKHNAKAKVMVASHNEDTVRFALRRMEELGLHPADHRVYFGQLLGMCDQISFPLGQAGYPVYKYVPYGPVMEVLPYLSRRALENSSLMKGTHRERQLLWLELLRRLRTGNLFHRPA"}}, "key": {"P5CR": {"molecular_target": "P5CR (Homo sapiens, UniProt Q96C36)", "sequence (Q96C36 whole entry)": "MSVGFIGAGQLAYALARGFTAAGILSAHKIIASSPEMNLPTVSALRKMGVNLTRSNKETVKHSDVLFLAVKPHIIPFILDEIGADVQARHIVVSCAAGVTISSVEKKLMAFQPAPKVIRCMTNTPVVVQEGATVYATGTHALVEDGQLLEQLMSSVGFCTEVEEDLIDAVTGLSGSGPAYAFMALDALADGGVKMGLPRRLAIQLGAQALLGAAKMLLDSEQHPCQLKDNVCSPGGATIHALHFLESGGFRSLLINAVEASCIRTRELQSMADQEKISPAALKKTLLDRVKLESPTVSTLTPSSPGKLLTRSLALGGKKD", "details": "read-out: Km for P5CR activity; extracts of HEK 293 cells overexpressing P5CR, substrate P5C", "description": "(§1) P5CS activity was measured in a reaction mixture of 50 mM Tris-HCl (pH 7.0), 0-50 mM glutamate, […], 10 mM ATP, and 0.2 mM NADPH and by monitoring the oxidation of NADPH at 340 nm. P5CR activity in the cell lysate was also determined by monitoring the oxidation of NADPH at 340 nm as described in Merrill, M. J., Yeh, G. C., and Phang, J. M. (1989) J. Biol. Chem. 264, 9352-9358, which reference is incorporated herein by reference in its entirety. Background rates for each of the above assays were determined from assays using lysates of HEK 293 cells transfected with the pcDNA3.1 vector alone. Km values for each enzyme activity were estimated by varying the concentration of the substrates and non-linear regression analysis of the initial velocity vs substrate concentration."}, "HEK 293 cells [1]": {"system": "HEK 293 cells", "assay": "Cell survival of HEK 293 cells after H2O2 stress treatment (MTT assay)", "type": "cell-based, human", "details": "for viability at 5000 µM: Homo sapiens, read-out: Cell Survival (%); for protection of cell survival against H2O2 exposure (in words): 0.5 mM H2O2, 3 h", "description": "For stress treatments, HEK 293 cells were grown to about 80% confluence. […] For testing the protective ability of other amino acids, cells were treated for 3 h with 0.5 mM H2O2 in the absence and presence of each amino acid (5 mM). Cells overexpressing PRODH, P5CS, and P5CR were incubated with H2O2 (0.5 mM) for 3 h at 37° C. after 24 h of transfection. Mild oxidative stress treatment was performed by treating HEK 293 cells with 20 μM H2O2 for 0-24 h at 37° C. […] Percent cell survival was estimated by counting live and dead cells using the 3-(4,5-dimethylthiazol-2-yl)-2,5-diphenyltetrazolium bromide (MTT) assay according to the recommendations of the manufacturer (Promega)."}, "P5CS": {"molecular_target": "P5CS (Homo sapiens, UniProt P54886)", "sequence (P54886 1-793 isoform P54886-2)": "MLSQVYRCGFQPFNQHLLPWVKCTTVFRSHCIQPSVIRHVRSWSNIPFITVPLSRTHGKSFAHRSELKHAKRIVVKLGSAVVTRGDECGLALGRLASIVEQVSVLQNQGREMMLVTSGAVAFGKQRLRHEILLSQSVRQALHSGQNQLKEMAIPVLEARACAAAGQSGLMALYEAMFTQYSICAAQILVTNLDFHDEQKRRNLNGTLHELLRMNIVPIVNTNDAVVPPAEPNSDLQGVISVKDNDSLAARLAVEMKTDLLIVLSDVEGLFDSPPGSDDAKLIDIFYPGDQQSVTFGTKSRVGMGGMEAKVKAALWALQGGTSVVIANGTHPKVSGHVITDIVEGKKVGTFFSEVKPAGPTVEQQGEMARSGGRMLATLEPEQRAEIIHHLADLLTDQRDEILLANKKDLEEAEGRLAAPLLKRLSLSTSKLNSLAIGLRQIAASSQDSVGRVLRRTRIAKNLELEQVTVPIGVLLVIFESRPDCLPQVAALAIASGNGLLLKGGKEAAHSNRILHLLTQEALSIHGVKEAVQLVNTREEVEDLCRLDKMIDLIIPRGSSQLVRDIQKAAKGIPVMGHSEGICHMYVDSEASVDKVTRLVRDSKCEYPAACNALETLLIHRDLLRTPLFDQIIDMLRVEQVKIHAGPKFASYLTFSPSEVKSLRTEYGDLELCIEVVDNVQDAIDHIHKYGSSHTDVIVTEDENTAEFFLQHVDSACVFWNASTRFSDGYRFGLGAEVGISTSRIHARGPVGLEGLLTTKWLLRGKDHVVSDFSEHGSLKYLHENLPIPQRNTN", "details": "read-out: Km for P5CS activity; extracts of HEK 293 cells overexpressing P5CS, substrate glutamate", "description": "as §1"}, "HEK 293 cells [2]": {"system": "HEK 293 cells", "details": "H2O2 1 mM for 3 and 6 h, 5 mM proline", "description": "The cell pellets were resuspended in 0.4 ml of 100 mM Tris-HCl (pH 8.5) containing 0.2% SDS, 0.2 mg/ml proteinase K and 5 mM EDTA. The cells were then incubated at 37° C. for 16 h. NaCl was next added to the cell suspension at a final concentration of 1.5 M and the nuclear debris was removed by centrifugation at room temperature. The nucleic acids in the supernatant were then precipitated using established protocols. DNA samples were analyzed by non-denaturing agarose gel electrophoresis (1.5%) and visualized by ethidium bromide staining."}, "HEK 293 cells [3]": {"system": "HEK 293 cells", "details": "H2O2 1 mM, proline 5 mM; H2O2 alone 55%, no stress 6%", "quoted_text": "Intracellular ROS levels in HEK 293 cells were evaluated before and after H2O2 treatment by incubating PBS washed cells for 10 min with dichlorodihydrofluorescein diacetate (DCHF-DA) (20 μM) (Molecular Probes).\nQuantitative ROS measurements were performed using flow cytometry. After oxidative stress treatment as described above, cells (5×10^5) were washed with PBS and incubated with DCHF-DA (0.1 mM) for 15 min in the dark at room temperature. Cells were then washed twice with PBS to remove excess DCHF-DA and resuspended in PBS containing 10 mM EDTA. The cells were then analyzed using FACScan flow cytometry (Becton-Dickinson, San Jose, Calif.). The mean fluorescence channel of each sample was calculated using FACS-equipped […] ® software and is reported as the percent fluorescence observed in the live cell population. In each assay, matching cells not treated with DCHF-DA served as a control."}, "[4]": {"substrate": "O=C(O)[C@@H]1CCCN1", "assay": "cells, lysate or membranes named", "details": "other: extracts of HEK 293 cells overexpressing PRODH, substrate proline; pH 7.0"}, "[5]": {"details": "HEK293, amino acid supplement 5 mM, 0.5 mM H2O2 for 3 h at 37° C., MTT, no supplement 39, control without H2O2 97"}, "[6]": {"details": "HEK293, 3 h, amino acid supplement 5 mM, 0.5 mM H2O2 for 3 h at 37° C., MTT, no supplement 39, control without H2O2 97"}}, "note": "Where two headings read alike, the source gives them in different places.", "data": [{"molecule": "O=C(O)C1CCC=N1", "note": "(stereo not drawn) [P5C]", "values": [{"measurement": "Km", "setting": "P5CR", "result": 15, "unit": "mM"}]}, {"molecule": "C[C@H](N)C(=O)O", "note": "[alanine, reference compound]", "values": [{"measurement": "viability at 5000 µM", "setting": "HEK 293 cells [1]; [5]", "result": 48, "unit": "%"}]}, {"molecule": "N=C(N)NCCC[C@H](N)C(=O)O", "note": "[arginine, reference compound]", "values": [{"measurement": "viability at 5000 µM", "setting": "HEK 293 cells [1]; HEK293, 3 h", "result": 50, "unit": "%"}]}, {"molecule": "NC(=O)C[C@H](N)C(=O)O", "note": "[asparagine, reference compound]", "values": [{"measurement": "viability at 5000 µM", "setting": "HEK 293 cells [1]; [5]", "result": 48, "unit": "%"}]}, {"molecule": "N[C@@H](CC(=O)O)C(=O)O", "note": "[aspartate, reference compound]", "values": [{"measurement": "viability at 5000 µM", "setting": "HEK 293 cells [1]; [5]", "result": 35, "unit": "%"}]}, {"molecule": "N[C@@H](CS)C(=O)O", "note": "[cysteine]", "values": [{"measurement": "viability at 5000 µM", "setting": "HEK 293 cells [1]; HEK293, 3 h", "result": 68, "unit": "%"}, {"measurement": "protection of cell survival against H2O2 exposure (in words)", "setting": "HEK 293 cells [1]; amino acid supplement 5 mM", "result": "increase cell survival to almost the same level as proline"}]}, {"molecule": "N[C@@H](CCC(=O)O)C(=O)O", "note": "[glutamate, reference compound]", "values": [{"measurement": "Cell Survival (%)", "setting": "HEK 293 cells [1]; amino acid supplement 5 mM, 0.5 mM H2O2 for 3 h at 37° C., MTT, no supplement 39, control without H2O2 97", "result": 35, "unit": "%"}, {"measurement": "Km", "setting": "P5CS", "result": "~20", "unit": "mM"}]}, {"molecule": "NC(=O)CC[C@H](N)C(=O)O", "note": "[glutamine, reference compound]", "values": [{"measurement": "viability at 5000 µM", "setting": "HEK 293 cells [1]; [5]", "result": 49, "unit": "%"}]}, {"molecule": "NCC(=O)O", "note": "[glycine, reference compound]", "values": [{"measurement": "viability at 5000 µM", "setting": "HEK 293 cells [1]; [6]", "result": 33, "unit": "%"}]}, {"molecule": "N[C@@H](Cc1c[nH]cn1)C(=O)O", "note": "[histidine]", "values": [{"measurement": "viability at 5000 µM", "setting": "HEK 293 cells [1]; [5]", "result": 58, "unit": "%"}, {"measurement": "protection of cell survival against H2O2 exposure (in words)", "setting": "HEK 293 cells [1]; amino acid supplement 5 mM", "result": "protection against H2O2 exposure"}]}, {"molecule": "CC[C@H](C)[C@H](N)C(=O)O", "note": "[isoleucine, reference compound]", "values": [{"measurement": "viability at 5000 µM", "setting": "HEK 293 cells [1]; [5]", "result": 42, "unit": "%"}]}, {"molecule": "CC(C)C[C@H](N)C(=O)O", "note": "[leucine, reference compound]", "values": [{"measurement": "viability at 5000 µM", "setting": "HEK 293 cells [1]; [5]", "result": 43, "unit": "%"}]}, {"molecule": "NCCCC[C@H](N)C(=O)O", "note": "[lysine]", "values": [{"measurement": "viability at 5000 µM", "setting": "HEK 293 cells [1]; HEK293, 3 h", "result": 54, "unit": "%"}]}, {"molecule": "CSCC[C@H](N)C(=O)O", "note": "[methionine]", "values": [{"measurement": "viability at 5000 µM", "setting": "HEK 293 cells [1]; [6]", "result": 57, "unit": "%"}, {"measurement": "protection of cell survival against H2O2 exposure (in words)", "setting": "HEK 293 cells [1]; amino acid supplement 5 mM", "result": "protection against H2O2 exposure"}]}, {"molecule": "N[C@@H](Cc1ccccc1)C(=O)O", "note": "[phenylalanine]", "values": [{"measurement": "viability at 5000 µM", "setting": "HEK 293 cells [1]; [5]", "result": 51, "unit": "%"}]}, {"molecule": "O=C(O)[C@@H]1CCCN1", "note": "[proline]", "values": [{"measurement": "viability at 5000 µM", "setting": "HEK 293 cells [1]; [6]", "result": "~77", "unit": "%"}, {"measurement": "DNA laddering induced by H2O2", "setting": "HEK 293 cells [2]", "result": "lack of DNA laddering"}, {"measurement": "cell fluorescence levels (fluorescent positives, indicative of ROS)", "setting": "HEK 293 cells [3]", "result": 10, "unit": "%"}]}, {"molecule": "N[C@@H](CO)C(=O)O", "note": "[serine]", "values": [{"measurement": "viability at 5000 µM", "setting": "HEK 293 cells [1]; [5]", "result": 58, "unit": "%"}]}, {"molecule": "C[C@@H](O)[C@H](N)C(=O)O", "note": "[threonine]", "values": [{"measurement": "viability at 5000 µM", "setting": "HEK 293 cells [1]; [5]", "result": 59, "unit": "%"}, {"measurement": "protection of cell survival against H2O2 exposure (in words)", "setting": "HEK 293 cells [1]; amino acid supplement 5 mM", "result": "protection against H2O2 exposure"}]}, {"molecule": "N[C@@H](Cc1c[nH]c2ccccc12)C(=O)O", "note": "[tryptophan]", "values": [{"measurement": "viability at 5000 µM", "setting": "HEK 293 cells [1]; HEK293, 3 h", "result": 66, "unit": "%"}, {"measurement": "protection of cell survival against H2O2 exposure (in words)", "setting": "HEK 293 cells [1]; amino acid supplement 5 mM", "result": "increase cell survival to almost the same level as proline"}]}, {"molecule": "N[C@@H](Cc1ccc(O)cc1)C(=O)O", "note": "[tyrosine, reference compound]", "values": [{"measurement": "viability at 5000 µM", "setting": "HEK 293 cells [1]; [5]", "result": 41, "unit": "%"}]}, {"molecule": "CC(C)[C@H](N)C(=O)O", "note": "[valine, reference compound]", "values": [{"measurement": "viability at 5000 µM", "setting": "HEK 293 cells [1]; [5]", "result": 44, "unit": "%"}]}, {"molecule": "B1", "values": [{"measurement": "Km", "setting": "[4]", "result": "14 ± 0.5", "unit": "mM"}]}]}
